Data published in publication PMC9861757, “New Insights into Conformationally Restricted Carbonic Anhydrase Inhibitors” (Molecules, 2023).
pKi: −log10 of the molar value. Like-named read-outs stand apart in the source and are kept apart here.

What was measured:
[1] = target: T1, human CA I (Homo sapiens, UniProt P00915); assay: stopped-flow CO2 hydrase assay, CA I inhibition; conditions: for loss of CA I inhibition potency relative to 3a: comparator 3a; for inhibition of CA I (in words): qualitative statement
Method: (§1) An Applied Photophysics stopped-flow instrument was used to assay the CA catalyzed CO2 hydration activity [14]. […] The uncatalyzed rates were determined in the same manner and subtracted from the total observed rates. Stock solutions of the inhibitor (0.1 mM) were prepared in distilled–deionized water and dilutions up to 0.01 nM were done thereafter with the assay buffer. Inhibitor and enzyme solutions were preincubated together for 15 min at room temperature prior to the assay to allow for the formation of the E–I complex. The inhibition constants were obtained by non-linear least-squares methods using PRISM 3 and the Cheng–Prusoff equation, as reported earlier, and represent the mean from at least three different determinations. All CA isoforms were recombinant proteins obtained in house, as reported earlier [1, 12, 13].

[2] = target: T2, human CA II (Homo sapiens, UniProt P00918); assay: stopped-flow CO2 hydrase assay, CA II inhibition
Method: as §1

[3] = target: T3, human CA IX (Homo sapiens, UniProt Q16790); assay: stopped-flow CO2 hydrase assay, CA IX inhibition; conditions: for SI (IX/II): ratio KI CA IX / KI CA II
Method: as §1

[4] = target: T4, human CA XII (Homo sapiens, UniProt O43570); assay: stopped-flow CO2 hydrase assay, CA XII inhibition
Method: as §1

[5] = target: T1, human CA I; parameters: made in house; method as in PMID 31076951; conditions: stopped-flow CO2 hydrase assay; compound marked with a reference in Table 1; cited from earlier work
[6] = target: T2, human CA II; parameters: made in house; method as in PMID 31076951; conditions: stopped-flow CO2 hydrase assay; compound marked with a reference in Table 1; cited from earlier work
[7] = target: T3, human CA IX; parameters: made in house; method as in PMID 31076951; conditions: stopped-flow CO2 hydrase assay; compound marked with a reference in Table 1; cited from earlier work
[8] = target: T4, human CA XII; parameters: made in house; method as in PMID 31076951; conditions: stopped-flow CO2 hydrase assay; compound marked with a reference in Table 1; cited from earlier work

T4 sequence (O43570 25-354): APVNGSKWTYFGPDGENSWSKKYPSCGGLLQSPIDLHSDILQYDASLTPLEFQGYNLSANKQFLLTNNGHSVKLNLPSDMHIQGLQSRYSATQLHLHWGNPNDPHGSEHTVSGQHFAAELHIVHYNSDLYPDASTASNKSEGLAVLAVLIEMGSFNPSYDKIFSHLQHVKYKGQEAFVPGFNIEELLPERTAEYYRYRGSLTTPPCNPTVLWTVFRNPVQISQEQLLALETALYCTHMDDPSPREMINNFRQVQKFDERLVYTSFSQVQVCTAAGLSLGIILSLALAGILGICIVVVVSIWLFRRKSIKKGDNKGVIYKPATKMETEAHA
T1 sequence (P00915 whole entry): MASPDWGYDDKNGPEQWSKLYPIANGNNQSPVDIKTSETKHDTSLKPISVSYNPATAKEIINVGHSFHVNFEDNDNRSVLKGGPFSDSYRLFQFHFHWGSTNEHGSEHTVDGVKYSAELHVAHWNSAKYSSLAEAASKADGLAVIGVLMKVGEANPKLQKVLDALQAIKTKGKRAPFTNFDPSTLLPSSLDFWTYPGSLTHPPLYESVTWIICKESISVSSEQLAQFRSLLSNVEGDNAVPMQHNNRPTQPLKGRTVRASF

SMILES | pKi [1] | pKi [2] | pKi [3] | SI (IX/II) [3] | pKi [4] | further results
NS(=O)(=O)c1ccc(O)c(NC(=O)N2CCOCC2)c1 [Compound 3c, N-(2-Hydroxy-5-sulfamoylphenyl)morpholine-4-carboxamide] | 5.40 | 5.10 | 6.85 | 0.017 | 7.13 | loss of CA I inhibition potency relative to 3a ([1]; CA I): 6.9 fold; CA IX potency increase relative to 3b ([3]; CA IX, comparator 3b): 2.2 fold
NS(=O)(=O)c1ccc(O)c(NC(=O)N2CCN(CC(=O)NC3CCCCC3)CC2)c1 [Compound 3i, 4-(2-(Cyclohexylamino)-2-oxoethyl)-N-(2-hydroxy-5-sulfamoylphenyl)piperazine-1-carboxamide] | 6.16 | 6.39 | 6.69 | 0.50 | 7.47 | inhibition of CA I (in words) ([1]; CA I): did not result in appreciable inhibition
CCN1CCN(C(=O)Nc2cc(S(N)(=O)=O)ccc2O)CC1 [Compound 3f, 4-Ethyl-N-(2-hydroxy-5-sulfamoylphenyl)piperazine-1-carboxamide] | 5.05 | 5.11 | 5.67 | 0.28 | 6.30 | decrease of CA I affinity relative to 3d ([1]; CA I, comparator 3d): 13.1 fold; more effective CA XII inhibitor than 3d ([4]; CA XII, comparator 3d): 1.3 fold
NS(=O)(=O)c1ccc(O)c(NC(=O)N2CCCCC2)c1 [Compound 3b, N-(2-Hydroxy-5-sulfamoylphenyl)piperidine-1-carboxamide] | 5.06 | 6.04 | 6.51 | 0.34 | 6.30 | loss of CA I inhibition potency relative to 3a ([1]; CA I): 14.8 fold; more effective on CA II than 3a ([2]; CA II, comparator 3a): 3.5 fold; more effective on CA IX than 3a ([3]; CA IX, comparator 3a): 1.2 fold
NS(=O)(=O)c1ccc(O)c(NC(=O)NCCc2ccccn2)c1 [Compound 3h, 4-Hydroxy-3-(3-(2-(pyridin-2-yl)ethyl)ureido)benzenesulfonamide] | – | – | – | 0.0007 | – | pKi [5]: 6.24; pKi [6]: 6.48; pKi [7]: 9.62; pKi [8]: 7.18; CA I potency increase relative to 3d ([1]; CA I, comparator 3d): 1.2 fold
NS(=O)(=O)c1ccc(O)c(NC(=O)NCCN2CCCCC2)c1 [Compound 3d, 4-Hydroxy-3-(3-(2-(piperidin-1-yl)ethyl)ureido)benzenesulfonamide] | 6.16 | 6.54 | 5.39 | 14.3 | 6.18 | –
NS(=O)(=O)c1ccc(CCNC(=O)Nc2ccccc2O)cc1 [Compound 3k, 4-(2-(3-(2-Hydroxyphenyl)ureido)ethyl)benzenesulfonamide] | – | 7.12 | 7.46 | 0.77 | 6.62 | inhibition of CA I (in words) ([1]; CA I): did not result in appreciable inhibition; less effective on CA II than AAZ ([2]; CA II, comparator AAZ): 6.3 fold
NS(=O)(=O)c1ccc(O)c(NC(=O)N2CCCC2)c1 [Compound 3a, N-(2-Hydroxy-5-sulfamoylphenyl)pyrrolidine-1-carboxamide] | 6.23 | 5.50 | 6.43 | 0.12 | 7.04 | more effective CA XII inhibitor than 3b ([4]; CA XII, comparator 3b): 5.5 fold
NS(=O)(=O)c1ccc(O)c(NC(=O)NCc2ccncc2)c1 [Compound 3g, 4-Hydroxy-3-(3-(pyridin-4-ylmethyl)ureido)benzenesulfonamide] | – | – | – | 0.0006 | – | pKi [5]: 7.05; pKi [6]: 6.33; pKi [7]: 9.52; pKi [8]: 7.07; more potent on CA I compared to AAZ ([1]; CA I, comparator AAZ): up to 2.8 fold
NS(=O)(=O)c1ccc(O)c(NC(=O)NCCCCO)c1 [Compound 3j, 4-Hydroxy-3-(3-(4-hydroxybutyl)ureido)benzenesulfonamide] | – | – | – | 0.46 | – | pKi [6]: 6.55; pKi [7]: 6.67; pKi [8]: 7.33; inhibition of CA I (in words) ([1]; CA I): did not result in appreciable inhibition
NS(=O)(=O)c1ccc(O)c(NC(=O)NCCN2CCOCC2)c1 [Compound 3e, 4-Hydroxy-3-(3-(2-morpholinoethyl)ureido)benzenesulfonamide] | 5.04 | 5.52 | 5.67 | 0.71 | 6.20 | decrease of CA I affinity relative to 3d ([1]; CA I, comparator 3d): 13.4 fold; more potent CA IX inhibition compared to 3d ([3]; CA IX, comparator 3d): 1.9 fold
